Test [1] concerns BpmFabI. The format is biochemical, Burkholderia pseudomallei.
Test [2] has as its system BpmFabI. The format is binding, Burkholderia pseudomallei.
In test [3] the test system is drug resistant staphylococci including MRSA and MRSE. Conditions: cited from earlier work.
Another test has as its system S. aureus. Conditions: cited from earlier work.

Values joined by “and” are separate entries in the source; they are usually repeats but may differ in a detail not shown here. Equal entries are not always repeated.

Take AFN-1252: in the test on BpmFabI [1], the “Mechanism of inhibition with respect to NADH (Lineweaver-Burk)” value is “mixed inhibition” and the “Mechanism of inhibition with respect to crotonyl-CoA (Lineweaver-Burk)” value is recorded as “uncompetitive”. Moreover, the IC50 with BpmFabI [1] (read-out: IC50 for inhibition of BpmFabI) turned out to be 9.6 nM. Further, the ΔTm with BpmFabI [2] was 12.76 ± 1.26 °C and 11.61 ± 0.10 °C. Also, in test [3], the “Activity against drug resistant staphylococci” value was “potent”. Besides, in the test on S. aureus, the MIC50 was 2 to 120 ng/mL.
